Patent US20250213575A1, “8-HETEROCYCLIC-3-(PHENYLSULFONYL)-[1,2,3]TRIAZOLO[1,5A]QUINAZOLIN-5(4H)-ONE DERIVATIVES AS ANTI-BACTERIALS” (priority 2022, published 2025)
pIC50: −log10 of the molar value.

Tests used:
AgrA = AgrA (Staphylococcus aureus, UniProt P0A0I7); test: cell-based; parameters: species or system S. aureus USA300 strain UAMS-1625; settings: for Ratio IC50 (in presence of HSA)/IC50 (in absence of HSA): 40 mg/mL HSA vs without HSA
red blood cell (RBC) = settings: cited from earlier work
S. aureus = settings: after multiple passages with Savirin; cited from earlier work
MRSA USA300 type strain = settings: mice, applied multiple times; cited from earlier work
[1] = IC50 at 40 mg/mL HSA, LB medium supplemented with 40 mg/mL human serum albumin
[2] = IC50 without HSA, LB medium, without HSA

AgrA, sequence (P0A0I7 whole entry): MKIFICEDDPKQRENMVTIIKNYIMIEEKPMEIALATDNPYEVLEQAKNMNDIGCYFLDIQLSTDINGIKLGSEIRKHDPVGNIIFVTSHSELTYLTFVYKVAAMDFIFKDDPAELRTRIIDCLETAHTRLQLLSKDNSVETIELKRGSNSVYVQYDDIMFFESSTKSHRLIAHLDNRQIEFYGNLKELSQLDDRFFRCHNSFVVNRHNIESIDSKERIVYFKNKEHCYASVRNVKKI

| Compound | Ratio IC50 (in presence of HSA)/IC50 (in absence of HSA) (AgrA) | pIC50 (AgrA; [1]) | pIC50 (AgrA; [2]) | exotoxin-induced red blood cell (RBC) lysis (red blood cell (RBC)) | resistance development (S. aureus) | abscess size and dermonecrosis (MRSA USA300 type strain) |
| --- | --- | --- | --- | --- | --- | --- |
| Cc1ccc(S(=O)(=O)c2nnn3c2[nH]c(=O)c2ccc(N4CCC5C(CCN5C)C4)cc23)c(C)c1 (stereo not shown) [Compound 39, 3-(2,4-dimethylbenzenesulfonyl)-8-{1-methyl-octahydro-1H-pyrrolo[3,2-c]pyridin-5-yl}-4H,5H-[1,2,3]triazolo[1,5-a]quinazolin-5-one] | +++ (ratio ≤ 25) | 3.99 to 4.69 | > 5.69 | – | – | – |
| Cc1ccc(S(=O)(=O)c2nnn3c2[nH]c(=O)c2ccc(N4C[C@H]5CNC[C@H]5C4)cc23)c(C)c1 [Compound 40, 8-[(3aR,6aS)-octahydropyrrolo[3,4-c]pyrrol-2-yl]-3-(2,4-dimethylbenzenesulfonyl)-4H,5H-[1,2,3]triazolo[1,5-a]quinazolin-5-one] | +++ (ratio ≤ 25) | 3.97 to 4.67 | 4.97 to 5.67 | – | – | – |
| Cc1ccc(S(=O)(=O)c2nnn3c2[nH]c(=O)c2ccc(N4CCN(C(C)(C)C)CC4)cc23)c(C)c1 [Compound 41, 8-(4-tert-butylpiperazin-1-yl)-3-(2,4-dimethylbenzenesulfonyl)-4H,5H-[1,2,3]triazolo[1,5-a]quinazolin-5-one] | +++ (ratio ≤ 25) | 4.00 to 4.69 | 5.00 to 5.69 | – | – | – |
| COCCN1CCN(c2ccc3c(=O)[nH]c4c(S(=O)(=O)c5ccc(C)cc5C)nnn4c3c2)CC1 [Compound 42, 3-(2,4-dimethylbenzenesulfonyl)-8-[4-(2-methoxyethyl)piperazin-1-yl]-4H,5H-[1,2,3]triazolo[1,5-a]quinazolin-5-one] | +++ (ratio ≤ 25) | 4.00 to 4.70 | 5.00 to 5.70 | – | – | – |
| Cc1ccc(S(=O)(=O)c2nnn3c2[nH]c(=O)c2ccc(N4CCN(CCO)CC4)cc23)c(C)c1 [Compound 43, 3-(2,4-dimethylbenzenesulfonyl)-8-[4-(2-hydroxyethyl)piperazin-1-yl]-4H,5H-[1,2,3]triazolo[1,5-a]quinazolin-5-one] | ++ (ratio ≤ 125) | 3.98 to 4.68 | > 5.68 | – | – | – |
| Cc1ccc(S(=O)(=O)c2nnn3c2[nH]c(=O)c2ccc(N4CCN(C(C)CO)CC4)cc23)c(C)c1 (stereo not shown) [Compound 44, 3-(2,4-dimethylbenzenesulfonyl)-8-[4-(1-hydroxypropan-2-yl)piperazin-1-yl]-4H,5H-[1,2,3]triazolo[1,5-a]quinazolin-5-one] | ++ (ratio ≤ 125) | 4.00 to 4.70 | > 5.70 | – | – | – |
| Cc1ccc(S(=O)(=O)c2nnn3c2[nH]c(=O)c2ccc(N4CCN(CCOCCO)CC4)cc23)c(C)c1 [Compound 45, 3-(2,4-dimethylbenzenesulfonyl)-8-{4-[2-(2-hydroxyethoxy)ethyl]piperazin-1-yl}-4H,5H-[1,2,3]triazolo[1,5-a]quinazolin-5-one] | +++ (ratio ≤ 25) | 4.02 to 4.72 | > 5.72 | – | – | – |
| Cc1ccc(S(=O)(=O)c2nnn3c2[nH]c(=O)c2ccc(N4CCCN(CCO)CC4)cc23)c(C)c1 [Compound 46, 3-(2,4-dimethylbenzenesulfonyl)-8-[4-(2-hydroxyethyl)-1,4-diazepan-1-yl]-4H,5H-[1,2,3]triazolo[1,5-a]quinazolin-5-one] | +++ (ratio ≤ 25) | 4.00 to 4.70 | > 5.70 | – | – | – |
| Cc1ccc(S(=O)(=O)c2nnn3c2[nH]c(=O)c2ccc(N4CCCNCC4)cc23)c(C)c1 [Compound 47, 8-(1,4-diazepan-1-yl)-3-(2,4-dimethylbenzenesulfonyl)-4H,5H-[1,2,3]triazolo[1,5-a]quinazolin-5-one] | +++ (ratio ≤ 25) | > 4.66 | > 5.66 | – | – | – |
| Cc1ccc(S(=O)(=O)c2nnn3c2[nH]c(=O)c2ccc(N4CCCOCC4)cc23)c(C)c1 [Compound 48, 3-(2,4-dimethylbenzenesulfonyl)-8-(1,4-oxazepan-4-yl)-4H,5H-[1,2,3]triazolo[1,5-a]quinazolin-5-one] | ++ (ratio ≤ 125) | 3.96 to 4.66 | > 5.66 | – | – | – |
| Cc1ccc(S(=O)(=O)c2nnn3c2[nH]c(=O)c2ccc(N4CCCN(C)CC4)cc23)c(C)c1 [Compound 49, 3-(2,4-dimethylbenzenesulfonyl)-8-(4-methyl-1,4-diazepan-1-yl)-4H,5H-[1,2,3]triazolo[1,5-a]quinazolin-5-one] | +++ (ratio ≤ 25) | 3.97 to 4.67 | 4.97 to 5.67 | – | – | – |
| Cc1ccc(S(=O)(=O)c2nnn3c2[nH]c(=O)c2ccc(N4CC5CCC(C4)N5)cc23)c(C)c1 [Compound 50] | – | > 4.67 | 4.97 to 5.67 | – | – | – |
| Cc1ccc(S(=O)(=O)c2nnn3c2[nH]c(=O)c2ccc(N4CCN(CC(F)(F)F)CC4)cc23)c(C)c1 [Compound 51, 3-(2,4-dimethylbenzenesulfonyl)-8-[4-(2,2,2-trifluoroethyl)piperazin-1-yl]-4H,5H-[1,2,3]triazolo[1,5-a]quinazolin-5-one] | ++ (ratio ≤ 125) | 4.02 to 4.72 | > 5.72 | – | – | – |
| Cc1ccc(S(=O)(=O)c2nnn3c2[nH]c(=O)c2ccc(N4CCN(C(=O)C(C)C)CC4)cc23)c(C)c1 [Compound 52, 3-(2,4-dimethylbenzenesulfonyl)-8-[4-(2-methylpropanoyl)piperazin-1-yl]-4H,5H-[1,2,3]triazolo[1,5-a]quinazolin-5-one] | +++ (ratio ≤ 25) | 4.01 to 4.71 | > 5.71 | – | – | – |
| Cc1ccc(S(=O)(=O)c2nnn3c2[nH]c(=O)c2ccc(N4CCN(C)C(=O)C4)cc23)c(C)c1 [Compound 53, 4-[3-(2,4-dimethylbenzenesulfonyl)-5-oxo-4H,5H-[1,2,3]triazolo[1,5-a]quinazolin-8-yl]-1-methylpiperazin-2-one] | ++ (ratio ≤ 125) | 3.97 to 4.67 | > 5.67 | – | – | – |
| Cc1ccc(S(=O)(=O)c2nnn3c2[nH]c(=O)c2ccc(N4CCn5ccnc5C4)cc23)c(C)c1 [Compound 54, 3-(2,4-dimethylbenzenesulfonyl)-8-{5H,6H,7H,8H-imidazo[1,2-a]pyrazin-7-yl}-4H,5H-[1,2,3]triazolo[1,5-a]quinazolin-5-one] | ++ (ratio ≤ 125) | 3.98 to 4.68 | 4.98 to 5.68 | – | – | – |
| Cc1ccc(S(=O)(=O)c2nnn3c2[nH]c(=O)c2ccc(N4CCN(C5COC5)CC4)cc23)c(C)c1 [Compound 55, 3-(2,4-dimethylbenzenesulfonyl)-8-[4-(oxetan-3-yl)piperazin-1-yl]-4H,5H-[1,2,3]triazolo[1,5-a]quinazolin-5-one] | ++ (ratio ≤ 125) | > 4.69 | > 5.69 | – | – | – |
| Cc1ccc(S(=O)(=O)c2n[nH]n3c2nc(=O)c2ccc(N4CCN(C5CCOCC5)CC4)cc23)c(C)c1 [Compound 56, 3-(2,4-dimethylbenzenesulfonyl)-8-[4-(oxan-4-yl)piperazin-1-yl]-1H,5H-[1,2,3]triazolo[1,5-a]quinazolin-5-one] | +++ (ratio ≤ 25) | 4.02 to 4.72 | > 5.72 | – | – | – |
| Cc1ccc(S(=O)(=O)c2nnn3c2[nH]c(=O)c2ccc(N4CCN(CCN)CC4)cc23)c(C)c1 [Compound 57, 8-[4-(2-aminoethyl)piperazin-1-yl]-3-(2,4-dimethylbenzenesulfonyl)-4H,5H-[1,2,3]triazolo[1,5-a]quinazolin-5-one] | +++ (ratio ≤ 25) | 3.98 to 4.68 | 4.98 to 5.68 | – | – | – |
| CCN(CC)CCC(=O)N1CCN(c2ccc3c(=O)[nH]c4c(S(=O)(=O)c5ccc(C)cc5C)nnn4c3c2)CC1 [Compound 58, 8-{4-[3-(diethylamino)propanoyl]piperazin-1-yl}-3-(2,4-dimethylbenzenesulfonyl)-4H,5H-[1,2,3]triazolo[1,5-a]quinazolin-5-one] | – | 4.05 to 4.75 | 5.05 to 5.75 | – | – | – |
| Cc1ccc(S(=O)(=O)c2n[nH]n3c2nc(=O)c2ccc(N4CCN(C5CCN(C)CC5)CC4)cc23)c(C)c1 [Compound 59, 3-(2,4-dimethylbenzenesulfonyl)-8-[4-(1-methylpiperidin-4-yl)piperazin-1-yl]-1H,5H-[1,2,3]triazolo[1,5-a]quinazolin-5-one] | +++ (ratio ≤ 25) | 4.03 to 4.73 | 5.03 to 5.73 | – | – | – |
| Cc1ccc(S(=O)(=O)c2nnn3c2[nH]c(=O)c2ccc(N4CCN(C5CC5)CC4)cc23)c(C)c1 [Compound 60, 8-(4-cyclopropylpiperazin-1-yl)-3-(2,4-dimethylbenzenesulfonyl)-4H,5H-[1,2,3]triazolo[1,5-a]quinazolin-5-one] | ++ (ratio ≤ 125) | 3.98 to 4.68 | > 5.68 | – | – | – |
| Cc1ccc(S(=O)(=O)c2nnn3c2[nH]c(=O)c2ccc(N4CC5(CC(C(=O)O)C5)C4)cc23)c(C)c1 [Compound 63, 2-[3-(2,4-Dimethyl-benzenesulfonyl)-5-oxo-4,5-dihydro-[1,2,3]triazolo[1,5-a]quinazolin-8-yl]-2-aza-spiro[3.3]heptane-6-carboxylic acid] | +++ (ratio ≤ 25) | > 4.69 | > 5.69 | – | – | – |
| Cc1ccc(S(=O)(=O)c2nnn3c2[nH]c(=O)c2ccc(N4CCC(C(=O)O)CC4)cc23)c(C)c1 [Compound 64, 1-[3-(2,4-Dimethyl-benzenesulfonyl)-5-oxo-4,5-dihydro-[1,2,3]triazolo[1,5-a]quinazolin-8-yl]-piperidine-4-carboxylic acid] | +++ (ratio ≤ 25) | > 4.68 | > 5.68 | – | – | – |
| CC(C)c1ccc(S(=O)(=O)c2nnn3c2nc(O)c2ccccc23)cc1 [Savirin] | – | – | – | inhibited | No resistance was developed | significant reduction |
